{
  "source": "patent US20160278376A1",
  "about": "(priority 2013, published 2016)",
  "key": {"[1]": {"system": "E. coli Stratagene strain “Solopack”", "experiment": "Paper disc inhibition assay on E. coli lawn", "format": "cell-based", "conditions": "20 μl drops without dilution (100% strength) on 6 mm discs; 24 hrs", "source_text": "FIG. 1. Effect of Carvacrol, Cinnamaldehyde and Geraniol against E. coli cells. Twenty microliter drops of three chemicals (at 100% strength) were placed on paper assay discs on top of E. coli lawn. Control disc included a solution of 70% ethanol without any added essential oil. Dotted line circles indicate zone of inhibition. Photo taken at 24 hrs after plating.\nThe essential oils cinnamadehyde (Aldrich, W228605; ≧98% purity), carvacrol (Aldrich, W224502; ≧98% purity) and geraniol (Aldrich, 163333; 98% purity) were purchased Sigma-Aldrich (St. Louis, Mo.). A single colony of E. coli Stratagene strain “Solopack” was inoculated in 5 ml of Luria Broth (LB) liquid medium with shaking at 37° C. overnight. Two hundred μl of the E. coli overnight cultures were placed on an LB agar plate, and spread evenly with glass beads. The bacterial culture was allowed to absorb into the LB medium. Within 30 min after absorption, 20 μl drops of the three essential oils (cinnamaldehyde, carvacrol or geraniol) were separately placed without dilution on 6 mm discs (Whatman, Cat No. 2017-006; GE healthcare Life Science) and the treated disks were placed on top of the plates with E. coli. The plates were then incubated for 24 hrs. Photos were taken at 24 hrs after plating (see FIG. 1). Experiments were repeated, with the same results."}, "[2]": {"system": "L. crescens strain BT-1 (Lcr)", "format": "cell-based, Liberibacter crescens", "conditions": "5 days"}, "[3]": {"system": "Lcr", "experiment": "microbe, parasite or virus in culture", "format": "cell-based", "conditions": "Liberibacter crescens, read-out: Minimum Inhibitory Concentration (MIC)"}, "[4]": {"system": "Swingle rootstocks and sweet orange", "experiment": "Phytotoxicity of foliar spray / leaf painting on citrus", "format": "in vivo", "source_text": "To test the phytoxicity of cinnamaldehyde or carvacrol in 70% ethanol, and 70% ethanol alone on citrus plants, we applied 1% (w/v) and 10% (w/v) cinnamaldehyde or carvacrol (each dissolved in 70% ethanol) on Swingle rootstocks (˜6 inches to 1 foot tall) by spraying to the point of run-off of the spray and also sweet orange (˜3 foot tall) by painting one or both sides of a portion of the leaf surface. We also applied 70% ethanol as control in these two methods."}, "[5]": {"system": "Swingle rootstocks", "experiment": "Phytotoxicity of soil drench on citrus", "format": "in vivo", "source_text": "To further test the phytoxicity of cinnamaldehyde or carvacrol in 70% ethanol, and 70% ethanol alone on citrus plants, we applied 1% and 10% cinnamaldehyde or carvacrol (each dissolved in 70% ethanol) on Swingle rootstocks (˜6 inches to 1 foot tall) by adding sufficient liquid to soil of potted citrus to the point of run-off of the drench. We also applied 70% ethanol as control in these two methods."}, "[6]": {"system": "Las", "format": "in vivo", "conditions": "1% (w/v) in 70% ethanol, foliar spray to run off; 1-2 weeks later, remained positive for at least several months; positive = Ct ≤ 35"}, "[7]": {"system": "Las", "format": "in vivo"}, "[8]": {"system": "Las", "format": "in vivo", "conditions": "1.5% (w/v) in 100% DMSO"}, "[9]": {"system": "Hamlin sweet orange trees grafted onto Swingle rootstock", "conditions": "in vivo"}, "[10]": {"conditions": "20 μl at 2 mg/ml in 70% ethanol on 6 mm discs"}, "[11]": {"conditions": "1% (w/v) in 70% ethanol, sprayed to run-off on Swingle rootstocks, painted on sweet orange leaves, carvacrol effect observable by 24 hours"}, "[12]": {"conditions": "10% w/v in 70% ethanol, chlorosis and leaf curling, but not defoliation"}, "[13]": {"conditions": "1% in 70% ethanol (carvacrol: 8 mg/ml (1%), observable by 60 hrs), potted Swingle rootstocks"}},
  "note": "Read-outs that look alike come from different tables or passages of the source.",
  "data": [
    {"compound": "O=C/C=C/c1ccccc1", "note": "[cinnamaldehyde]", "values": [
      {"measurement": "inhibition of the growth of E. coli (zone of inhibition)", "setting": "[1]", "result": "more inhibitory than geraniol"},
      {"measurement": "inhibition of the growth of Lcr (zone of inhibition)", "setting": "[2]; [10]", "result": "strong inhibition"},
      {"measurement": "level down to which inhibitory to Lcr in the disc tests", "setting": "[2]; two-fold serial dilutions in 70% ethanol on 6 mm discs", "result": 1, "unit": "mg/mL"},
      {"measurement": "MIC", "setting": "[3]", "result": 5, "unit": "µg/mL"},
      {"measurement": "phytotoxicity to citrus, foliar application", "setting": "[4]; [11]", "result": "not at all phytotoxic"},
      {"measurement": "phytotoxicity to citrus, foliar application", "setting": "[4]; [12]", "result": "moderately phytotoxic"},
      {"measurement": "phytotoxicity to citrus, soil drench", "setting": "[5]; [13]", "result": "not at all phytotoxic"},
      {"measurement": "phytotoxicity to citrus, soil drench", "setting": "[5]; [12]", "result": "moderately phytotoxic"},
      {"measurement": "qPCR test for Las after treatment", "setting": "[6]", "result": "qPCR positive"},
      {"measurement": "PCR test for Las", "setting": "[7]; 0.3% in 50% DMSO, foliar spray to run off", "result": "remained infected"},
      {"measurement": "PCR test for Las in new shoots", "setting": "[7]; 1.5% in 50% DMSO, foliar spray to run off, first tests about 3 weeks after defoliation", "result": "completely Las negative"},
      {"measurement": "outcome of weekly qPCR tests for Las over nine months", "setting": "[7]; 1.5% in 50% DMSO, foliar spray, no detectable Liberibacter infection and no citrus greening symptoms", "result": "cured"},
      {"measurement": "PCR test for Las in new shoots", "setting": "[8]; 2 x 20 ml trunk injection, first tests about 3 weeks after defoliation", "result": "completely negative"},
      {"measurement": "weekly PCR tests for Las over 9 months", "setting": "[8]; trunk injection, thus cured", "result": "remained completely PCR negative"},
      {"measurement": "effect on foliage of treated trees", "setting": "[9]", "result": "completely defoliated"}
    ]},
    {"compound": "CC(C)=CCC/C(C)=C/CO", "note": "[geraniol, reference compound]", "values": [
      {"measurement": "inhibition of the growth of E. coli (zone of inhibition)", "setting": "[1]", "result": "inhibitory"},
      {"measurement": "inhibition of the growth of Lcr (zone of inhibition)", "setting": "[2]; 20 μl of two-fold dilutions 2 mg/ml to 0.125 mg/ml in 70% ethanol on 6 mm discs", "result": "not inhibitory"}
    ]},
    {"compound": "Cc1ccc(C(C)C)cc1O", "note": "[carvacrol, reference compound]", "values": [
      {"measurement": "inhibition of the growth of E. coli (zone of inhibition)", "setting": "[1]", "result": "more inhibitory than cinnamaldehyde"},
      {"measurement": "inhibition of the growth of Lcr (zone of inhibition)", "setting": "[2]; [10]", "result": "slight inhibition"},
      {"measurement": "phytotoxicity to citrus, foliar application", "setting": "[4]; [11]", "result": "highly phytotoxic"},
      {"measurement": "phytotoxicity to citrus, soil drench", "setting": "[5]; [13]", "result": "highly phytotoxic"}
    ]}
  ]
}
